Entries after “also recorded” stand apart in the source; their conditions may differ. Where two headings read alike, the source gives them in different places.
How the values were obtained:
[1] = biological target: T1, TBK1 (Homo sapiens (Human), UniProt Q9UHD2); assay: In vitro TBK1 degradation assay, Panc02.13 cells (compounds 3-33), immunoblot; type: cell-based; conditions: for DC50: read-out: DC50 (concentration at which 50% degradation is observed)
Experimental: (§1) In vitro degradation assay protocol for compounds 3-33: Panc02.13 cells were purchased from ATCC and cultured in RPMI-1640 (Gibco), supplemented with 15% FBS (ATCC) and 10 Units/mL human recombinant insulin (Gibco). PROTAC treatments were carried out in 12-well plates for 16 h. TLR3 agonist Poly I:C (Invivogen; tlr1-pic) was added for the final 3 h. Cells were harvested, and lysed in RIPA buffer (50 mM Tris pH8, 150 mM NaCl, 1% Tx-100, 0.1% SDS, 0.5% Sodium Deoxycholate) supplemented with protease and phosphatase inhibitors. Lysates were clarified at 16,000 g for 10 minutes, and supernatants were separated by SDS-PAGE. Immunoblotting was performed using standard protocols. The antibodies used were TBK1 (Cell Signaling#3504), pIRF3 (abcam#ab76493), and GAPDH (Cell Signaling#5174).

[2] = biological target: T1, TBK1; assay: TBK1 binding affinity (Kd)
[3] = biological target: Von Hippel-Lindau (VHL) E3 ligase (Homo sapiens (Human), UniProt P40337); assay: VHL binding, FP assay; conditions: affinity of the VHL ligand component with side chain R2
[4] = system: pIRF3; assay: Inhibition of TBK1 downstream marker pIRF3 in cells; type: cell-based
Experimental: as §1

[5] = system: KRAS mutant cell lines H23, A549 and H1792, and KRAS wild type cell line H2110; assay: Proliferation of KRAS mutant and wild type cell lines; type: cell-based; conditions: 72 hour treatment
[6] = biological target: T2, IKKε (Homo sapiens (Human), UniProt Q14164); assay: IKKε binding affinity (Kd)
[7] = biological target: T2, IKKε; assay: IKKε degradation in cells; type: cell-based
[8] = biological target: T1, TBK1; assay: TBK1 degradation in KRAS mutant and wild type cell lines; type: cell-based; conditions: 72 hour treatment; H23, A549, H1792 (KRAS mutant), H2110 (KRAS wild type)
[9] = TBK1 degradation, Panc02.13 cells, 16 h, mean of ≥ 2 determinations

T1 sequence (Q9UHD2 whole entry): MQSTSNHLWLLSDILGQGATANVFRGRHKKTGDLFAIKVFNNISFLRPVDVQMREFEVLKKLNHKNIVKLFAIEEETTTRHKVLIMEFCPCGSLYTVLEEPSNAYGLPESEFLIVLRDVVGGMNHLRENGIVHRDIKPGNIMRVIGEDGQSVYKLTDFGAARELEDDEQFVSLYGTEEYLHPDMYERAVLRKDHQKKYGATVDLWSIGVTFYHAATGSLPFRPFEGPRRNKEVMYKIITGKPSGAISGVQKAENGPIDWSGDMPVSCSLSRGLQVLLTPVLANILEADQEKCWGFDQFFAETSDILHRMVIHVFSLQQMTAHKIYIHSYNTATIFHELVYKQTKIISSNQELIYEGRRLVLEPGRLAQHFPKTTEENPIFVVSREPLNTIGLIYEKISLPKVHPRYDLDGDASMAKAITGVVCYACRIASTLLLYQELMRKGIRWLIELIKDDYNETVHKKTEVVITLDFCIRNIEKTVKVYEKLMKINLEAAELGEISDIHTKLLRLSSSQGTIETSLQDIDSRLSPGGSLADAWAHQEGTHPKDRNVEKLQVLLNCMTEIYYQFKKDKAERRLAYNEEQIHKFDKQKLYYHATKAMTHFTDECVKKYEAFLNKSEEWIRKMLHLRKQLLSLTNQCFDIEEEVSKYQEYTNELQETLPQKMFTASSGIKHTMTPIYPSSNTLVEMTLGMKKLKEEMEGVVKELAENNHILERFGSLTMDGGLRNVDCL
T2 sequence (Q14164 whole entry): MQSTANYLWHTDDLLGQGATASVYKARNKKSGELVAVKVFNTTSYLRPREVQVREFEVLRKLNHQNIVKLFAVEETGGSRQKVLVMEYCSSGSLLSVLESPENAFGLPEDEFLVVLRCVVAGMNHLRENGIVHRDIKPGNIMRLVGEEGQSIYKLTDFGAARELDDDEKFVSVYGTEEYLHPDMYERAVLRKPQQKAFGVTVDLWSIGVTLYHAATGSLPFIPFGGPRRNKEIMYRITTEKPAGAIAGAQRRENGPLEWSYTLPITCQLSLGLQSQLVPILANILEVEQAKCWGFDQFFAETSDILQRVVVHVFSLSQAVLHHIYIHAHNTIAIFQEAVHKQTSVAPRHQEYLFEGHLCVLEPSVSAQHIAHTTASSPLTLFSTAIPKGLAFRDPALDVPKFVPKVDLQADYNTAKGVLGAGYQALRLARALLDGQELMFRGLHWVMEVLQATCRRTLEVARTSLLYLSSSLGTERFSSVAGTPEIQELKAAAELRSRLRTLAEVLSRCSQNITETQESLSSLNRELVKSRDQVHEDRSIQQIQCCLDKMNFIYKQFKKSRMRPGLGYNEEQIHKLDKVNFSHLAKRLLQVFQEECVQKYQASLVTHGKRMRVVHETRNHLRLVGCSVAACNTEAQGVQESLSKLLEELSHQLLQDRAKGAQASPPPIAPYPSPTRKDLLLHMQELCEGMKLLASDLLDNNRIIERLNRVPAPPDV
Von Hippel-Lindau (VHL) E3 ligase, sequence (P40337 whole entry, looked up): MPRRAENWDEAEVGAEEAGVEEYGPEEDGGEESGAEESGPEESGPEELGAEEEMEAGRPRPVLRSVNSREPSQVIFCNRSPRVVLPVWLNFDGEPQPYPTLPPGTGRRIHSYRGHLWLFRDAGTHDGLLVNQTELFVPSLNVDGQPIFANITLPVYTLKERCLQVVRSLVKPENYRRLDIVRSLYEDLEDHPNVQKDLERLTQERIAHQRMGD
Von Hippel-Lindau (VHL) E3 ligase, sequence (Q15370 whole entry partner, looked up): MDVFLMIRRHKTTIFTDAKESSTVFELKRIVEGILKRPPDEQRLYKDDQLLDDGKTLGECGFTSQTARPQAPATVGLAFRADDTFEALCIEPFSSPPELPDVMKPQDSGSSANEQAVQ
Von Hippel-Lindau (VHL) E3 ligase, sequence (Q15369 whole entry partner, looked up): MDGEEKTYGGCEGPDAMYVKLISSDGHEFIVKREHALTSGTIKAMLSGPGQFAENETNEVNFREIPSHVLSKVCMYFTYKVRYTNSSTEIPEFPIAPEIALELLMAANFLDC

Cc1ncsc1-c1ccc(CNC(=O)[C@@H]2C[C@@H](O)CN2C(=O)[C@@H](NC(=O)COCCCOCCCCOCCCOc2ccc(Nc3ncc(Br)c(NCCCN(C)C(=O)C4CCC4)n3)cc2)C(C)(C)C)cc1 [Compound 11, (2S,4R)-1-((S)-18-(4-((5-Bromo-4-((3-(N-methylcyclobutanecarboxamido)-propyl)amino)pyrimidin-2-yl)amino)phenoxy)-2-(tert-butyl)-4-oxo-6,10,15-trioxa-3-azaoctadecan-1-oyl)-4-hydroxy-N-(4-(4-methylthiazol-5-yl)benzyl)pyrrolidine-2-carboxamide]
DC50 [1, 9]: 12 nM
Dmax ([1]; TBK1 degradation, Panc02.13 cells, 16 h, mean of ≥ 2 determinations, read-out: Dmax (maximal degradation observed)): 96%
TBK1 degradation with excess VHL ligand 2 added ([1]; excess VHL ligand 2 as competitor): abrogated TBK1's degradation
TBK1 degradation (in words) ([1]; listed as PROTAC 11): Maximal efficacy; also recorded: effects degradation of TBK1
TBK1 degradation after pre-treatment with proteasome inhibitor carfilzomib ([1]; pre-treatment with carfilzomib, listed as PROTAC 11): markedly reduced the extent of TBK1 degradation; also recorded: abrogated
Kd [2]: 4.6 ± 1.1 nM
IC50 [3]: 800 nM
intracellular TBK1 binding indicated by inhibition of pIRF3 [4]: competent intracellular TBK1 binding
effect on proliferation of KRAS mutant versus wild type cells [5]: no differential effect on the proliferation
Kd [6]: 70 nM
IKKε degradation [7]: negligible degradation
degradation selectivity TBK1 over IKKε [7]: selectively degrades TBK1 over IKKε
TBK1 degradation in KRAS mutant and wild type cells [8]: near complete degradation of TBK1

Cc1ncsc1-c1ccc(CNC(=O)[C@@H]2C[C@@H](O)CN2C(=O)[C@@H](NC(=O)COCCCOCCCCOCCCOc2ccc(Nc3ncc(C4CCC4)c(NCCCN(C)C(=O)C4CCC4)n3)cc2)C(C)(C)C)cc1 [Compound 22]
Dmax (maximal degradation observed) [1, 9]: 70%
DC50 [1, 9]: 544 nM
Kd [2]: 1040 ± 165 nM
Kd ([2]; rounded value): 1000 nM

CC[C@H](NC(=O)COCCCOCCCCOCCCOc1ccc(Nc2ncc(Br)c(NCCCN(C)C(=O)C3CCC3)n2)cc1)C(=O)N1C[C@H](O)C[C@H]1C(=O)NCc1ccc(-c2scnc2C)cc1 [Compound 31]
Dmax (maximal degradation observed) [1, 9]: 71%
Dmax (maximal degradation observed) ([1]; TBK1 degradation, Panc02.13 cells, 16 h, mean of ≥ 2 determinations, listed as PROTAC 31): > 70%
DC50 [1, 9]: 864 nM
IC50 [3]: 70400 nM

CCC[C@H](NC(=O)COCCCOCCCCOCCCOc1ccc(Nc2ncc(Br)c(NCCCN(C)C(=O)C3CCC3)n2)cc1)C(=O)N1C[C@H](O)C[C@H]1C(=O)NCc1ccc(-c2scnc2C)cc1 [Compound 32]
Dmax (maximal degradation observed) [1, 9]: 75%
DC50 [1, 9]: 288 nM
IC50 [3]: 6200 nM

Cc1ncsc1-c1ccc(CNC(=O)[C@@H]2C[C@@H](O)CN2C(=O)[C@@H](NC(=O)COCCCOCCCCOCCCOc2ccc(Nc3ncc(Br)c(NCCCN(C)C(=O)C4CCC4)n3)cc2)C(C)C)cc1 [Compound 33]
Dmax (maximal degradation observed) [1, 9]: 88%
DC50 [1, 9]: 44 nM
IC50 [3]: 1450 nM
